In the kinase profiling compilation of Christmann-Franck et al. (2016):

How the values were obtained:
Experiment in all cases: radiometric filter-binding kinase assay
ROCK2 (rat) = settings: accession and sequence are those of the human protein
PAK6 (human) = PAK6 (human) (UniProt Q9NQU5)
RPS6KA5 KD1 KD2 (human) = RPS6KA5 KD1 KD2 (human) (UniProt O75582)
LCK (mouse) = settings: accession and sequence are those of the human protein
EPHA2 (human) = EPHA2 (human) (UniProt P29317)
[1] = tested on: AKT1 (human), P31749 [S473D]
IKBKE (human) = IKBKE (human) (UniProt Q14164)
MAPK13 (human) = MAPK13 (human) (UniProt O15264)
MAPK13 (human), sequence (O15264 whole entry, looked up): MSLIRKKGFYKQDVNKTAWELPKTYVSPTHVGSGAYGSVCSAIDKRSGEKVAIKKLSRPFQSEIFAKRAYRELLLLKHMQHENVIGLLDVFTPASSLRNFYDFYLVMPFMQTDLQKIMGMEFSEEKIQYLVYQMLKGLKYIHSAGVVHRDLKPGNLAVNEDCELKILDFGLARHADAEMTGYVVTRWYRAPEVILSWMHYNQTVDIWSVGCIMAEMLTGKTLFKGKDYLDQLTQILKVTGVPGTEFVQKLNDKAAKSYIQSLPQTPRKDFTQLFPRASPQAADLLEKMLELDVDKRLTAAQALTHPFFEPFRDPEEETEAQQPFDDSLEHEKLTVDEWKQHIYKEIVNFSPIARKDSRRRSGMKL

NEK6 (human) = NEK6 (human) (UniProt Q9HC98)
MST4 (human) = MST4 (human) (UniProt Q9P289)
PRKCZ (human) = PRKCZ (human) (UniProt Q05513)
MAPKAPK5 (human) = MAPKAPK5 (human) (UniProt Q8IW41)
PAK4 (human) = PAK4 (human) (UniProt O96013)
PAK4 (human), sequence (O96013 whole entry, looked up): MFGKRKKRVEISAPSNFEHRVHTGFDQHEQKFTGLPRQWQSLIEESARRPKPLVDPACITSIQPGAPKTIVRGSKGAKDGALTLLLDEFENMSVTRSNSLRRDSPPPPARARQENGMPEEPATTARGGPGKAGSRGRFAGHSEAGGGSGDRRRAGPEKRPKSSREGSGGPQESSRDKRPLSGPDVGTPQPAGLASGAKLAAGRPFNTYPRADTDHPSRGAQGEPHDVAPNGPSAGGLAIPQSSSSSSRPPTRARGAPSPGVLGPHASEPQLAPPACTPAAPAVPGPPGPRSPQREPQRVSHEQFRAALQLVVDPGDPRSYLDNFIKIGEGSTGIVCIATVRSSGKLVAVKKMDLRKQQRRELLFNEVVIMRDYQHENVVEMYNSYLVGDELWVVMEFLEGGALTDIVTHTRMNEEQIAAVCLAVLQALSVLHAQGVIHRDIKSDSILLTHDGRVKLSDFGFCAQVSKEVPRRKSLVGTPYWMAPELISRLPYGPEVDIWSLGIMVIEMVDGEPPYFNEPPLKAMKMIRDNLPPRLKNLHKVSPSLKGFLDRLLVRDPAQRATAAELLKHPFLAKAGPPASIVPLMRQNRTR

MAPK11 (human) = MAPK11 (human) (UniProt Q15759)
MAPK11 (human), sequence (Q15759 whole entry, looked up): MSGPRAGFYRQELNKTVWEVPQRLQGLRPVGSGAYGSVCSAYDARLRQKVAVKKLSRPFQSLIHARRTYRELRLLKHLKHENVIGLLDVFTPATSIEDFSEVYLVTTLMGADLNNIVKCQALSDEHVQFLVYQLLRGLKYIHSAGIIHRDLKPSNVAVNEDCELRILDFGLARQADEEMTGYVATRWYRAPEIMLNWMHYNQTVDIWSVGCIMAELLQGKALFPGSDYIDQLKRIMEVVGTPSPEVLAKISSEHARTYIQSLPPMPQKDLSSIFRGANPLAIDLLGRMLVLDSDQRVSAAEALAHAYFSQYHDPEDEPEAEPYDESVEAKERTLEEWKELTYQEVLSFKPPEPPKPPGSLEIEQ

HIPK2 (human) = HIPK2 (human) (UniProt Q9H2X6)
DYRK3 (human) = DYRK3 (human) (UniProt O43781)
DYRK3 (human), sequence (O43781 whole entry, looked up): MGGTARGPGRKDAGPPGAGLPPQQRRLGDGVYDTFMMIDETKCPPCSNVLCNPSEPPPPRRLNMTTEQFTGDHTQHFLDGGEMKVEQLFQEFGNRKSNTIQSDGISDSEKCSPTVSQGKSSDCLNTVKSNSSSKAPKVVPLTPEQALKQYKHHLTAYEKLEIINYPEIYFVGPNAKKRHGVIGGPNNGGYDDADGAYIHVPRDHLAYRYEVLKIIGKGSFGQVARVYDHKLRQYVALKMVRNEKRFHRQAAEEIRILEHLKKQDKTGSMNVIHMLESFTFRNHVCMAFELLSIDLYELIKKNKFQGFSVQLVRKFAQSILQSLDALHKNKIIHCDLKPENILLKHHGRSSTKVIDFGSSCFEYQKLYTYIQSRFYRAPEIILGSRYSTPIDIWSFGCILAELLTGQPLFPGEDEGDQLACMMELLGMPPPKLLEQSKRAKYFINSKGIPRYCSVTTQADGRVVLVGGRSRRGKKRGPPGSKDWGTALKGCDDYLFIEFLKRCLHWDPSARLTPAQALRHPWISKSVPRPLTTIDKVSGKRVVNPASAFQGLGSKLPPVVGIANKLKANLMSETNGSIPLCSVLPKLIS

BTK (human) = BTK (human) (UniProt Q06187)
CSNK2A1 (human) = CSNK2A1 (human) (UniProt P68400)
MARK3 (human) = MARK3 (human) (UniProt P27448)
MAPK14 (human) = MAPK14 (human) (UniProt Q16539)
MAPK14 (human), sequence (Q16539 whole entry, looked up): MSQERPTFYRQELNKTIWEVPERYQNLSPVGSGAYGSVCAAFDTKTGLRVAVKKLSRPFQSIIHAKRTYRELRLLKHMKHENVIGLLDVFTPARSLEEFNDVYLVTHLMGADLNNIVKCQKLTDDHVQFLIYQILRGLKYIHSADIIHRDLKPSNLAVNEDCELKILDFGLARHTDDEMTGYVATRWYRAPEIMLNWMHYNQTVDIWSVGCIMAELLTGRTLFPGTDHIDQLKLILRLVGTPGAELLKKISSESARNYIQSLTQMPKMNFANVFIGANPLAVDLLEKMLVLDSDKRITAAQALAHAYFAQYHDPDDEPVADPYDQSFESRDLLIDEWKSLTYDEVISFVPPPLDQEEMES

DYRK1A (human) = DYRK1A (human) (UniProt Q13627)
DYRK2 (human) = DYRK2 (human) (UniProt Q92630)
CaMK1 (human) = CaMK1 (human) (UniProt Q14012)
PAK7 (human) = PAK7 (human) (UniProt Q9P286)
PAK7 (human), sequence (Q9P286 whole entry, looked up): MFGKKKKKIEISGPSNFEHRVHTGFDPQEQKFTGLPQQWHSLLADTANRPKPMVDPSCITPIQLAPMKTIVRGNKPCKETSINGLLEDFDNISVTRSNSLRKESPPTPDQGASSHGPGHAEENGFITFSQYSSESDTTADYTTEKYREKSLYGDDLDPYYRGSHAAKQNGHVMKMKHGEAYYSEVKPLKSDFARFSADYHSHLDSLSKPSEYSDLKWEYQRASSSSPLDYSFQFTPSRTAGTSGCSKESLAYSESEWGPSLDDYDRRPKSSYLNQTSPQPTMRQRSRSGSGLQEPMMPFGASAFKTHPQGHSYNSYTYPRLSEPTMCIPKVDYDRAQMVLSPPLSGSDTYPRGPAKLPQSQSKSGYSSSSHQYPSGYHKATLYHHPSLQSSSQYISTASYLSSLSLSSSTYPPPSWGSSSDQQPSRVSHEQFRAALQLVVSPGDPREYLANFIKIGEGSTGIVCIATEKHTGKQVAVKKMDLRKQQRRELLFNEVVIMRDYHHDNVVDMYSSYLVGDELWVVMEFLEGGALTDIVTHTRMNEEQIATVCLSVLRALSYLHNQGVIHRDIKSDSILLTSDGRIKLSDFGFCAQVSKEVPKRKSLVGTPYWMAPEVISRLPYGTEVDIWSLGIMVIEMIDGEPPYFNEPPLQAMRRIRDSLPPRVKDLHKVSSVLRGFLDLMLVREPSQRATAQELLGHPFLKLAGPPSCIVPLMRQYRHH

EEF2K (human) = EEF2K (human) (UniProt O00418)
EPHB3 (human) = EPHB3 (human) (UniProt P54753)
EPHB3 (human), sequence (P54753 whole entry, looked up): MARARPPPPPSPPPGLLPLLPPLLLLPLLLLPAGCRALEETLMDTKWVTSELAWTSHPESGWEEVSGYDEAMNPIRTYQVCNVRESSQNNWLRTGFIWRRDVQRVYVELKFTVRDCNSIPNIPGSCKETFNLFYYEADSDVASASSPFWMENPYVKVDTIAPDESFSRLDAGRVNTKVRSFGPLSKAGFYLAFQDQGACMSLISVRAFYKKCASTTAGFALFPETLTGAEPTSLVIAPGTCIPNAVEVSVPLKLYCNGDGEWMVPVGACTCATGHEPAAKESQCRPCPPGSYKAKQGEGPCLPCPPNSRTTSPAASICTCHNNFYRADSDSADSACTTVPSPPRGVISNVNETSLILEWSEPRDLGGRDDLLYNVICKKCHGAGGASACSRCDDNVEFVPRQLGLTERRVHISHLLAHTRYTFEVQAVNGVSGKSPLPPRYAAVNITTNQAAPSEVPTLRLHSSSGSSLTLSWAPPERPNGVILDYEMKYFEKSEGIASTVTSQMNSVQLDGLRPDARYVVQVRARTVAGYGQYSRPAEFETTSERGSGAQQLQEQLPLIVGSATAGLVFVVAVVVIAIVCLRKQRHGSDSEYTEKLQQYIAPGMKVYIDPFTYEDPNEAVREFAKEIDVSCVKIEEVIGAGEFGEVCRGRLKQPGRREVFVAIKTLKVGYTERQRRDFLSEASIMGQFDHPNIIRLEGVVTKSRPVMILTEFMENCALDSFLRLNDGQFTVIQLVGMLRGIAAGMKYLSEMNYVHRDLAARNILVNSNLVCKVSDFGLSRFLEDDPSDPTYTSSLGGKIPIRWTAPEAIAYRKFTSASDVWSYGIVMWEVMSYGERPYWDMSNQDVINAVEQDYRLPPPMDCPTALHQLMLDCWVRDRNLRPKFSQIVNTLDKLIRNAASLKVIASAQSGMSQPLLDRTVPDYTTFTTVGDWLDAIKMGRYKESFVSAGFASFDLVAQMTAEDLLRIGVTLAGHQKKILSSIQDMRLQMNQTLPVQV

EPHA2 (human), sequence (P29317 whole entry, looked up): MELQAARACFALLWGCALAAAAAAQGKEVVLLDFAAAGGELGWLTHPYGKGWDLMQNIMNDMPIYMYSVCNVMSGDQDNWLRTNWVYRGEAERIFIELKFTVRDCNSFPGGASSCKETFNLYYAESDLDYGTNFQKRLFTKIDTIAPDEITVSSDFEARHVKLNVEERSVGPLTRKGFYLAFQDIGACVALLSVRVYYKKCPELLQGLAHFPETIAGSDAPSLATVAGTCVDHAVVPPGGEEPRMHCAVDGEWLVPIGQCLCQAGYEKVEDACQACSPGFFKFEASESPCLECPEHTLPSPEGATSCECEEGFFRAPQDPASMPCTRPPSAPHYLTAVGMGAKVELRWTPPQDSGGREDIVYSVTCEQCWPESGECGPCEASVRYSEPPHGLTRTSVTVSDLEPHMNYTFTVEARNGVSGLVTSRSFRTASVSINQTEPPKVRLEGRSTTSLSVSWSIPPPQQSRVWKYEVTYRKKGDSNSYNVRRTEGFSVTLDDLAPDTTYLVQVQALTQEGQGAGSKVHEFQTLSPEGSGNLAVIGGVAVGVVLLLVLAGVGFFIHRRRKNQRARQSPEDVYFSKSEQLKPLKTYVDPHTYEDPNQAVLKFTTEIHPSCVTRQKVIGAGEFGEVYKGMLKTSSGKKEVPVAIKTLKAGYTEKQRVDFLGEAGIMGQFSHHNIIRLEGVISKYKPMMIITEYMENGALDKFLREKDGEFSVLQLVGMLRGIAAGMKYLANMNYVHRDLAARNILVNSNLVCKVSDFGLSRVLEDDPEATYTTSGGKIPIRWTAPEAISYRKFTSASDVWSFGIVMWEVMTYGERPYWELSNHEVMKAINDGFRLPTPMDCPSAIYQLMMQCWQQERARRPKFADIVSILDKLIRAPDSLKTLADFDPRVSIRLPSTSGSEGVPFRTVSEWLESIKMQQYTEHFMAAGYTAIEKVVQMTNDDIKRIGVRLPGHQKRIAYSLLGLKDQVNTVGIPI

Cn1c(=O)c2c(ncn2C)n(C)c1=O
residual activity (ROCK2 (rat); compound 0.1 µM): 91% | residual activity (ROCK2 (rat); compound 1.0 µM): 93% | residual activity (PAK6 (human); compound 0.1 µM): 97% | residual activity (PAK6 (human); compound 1.0 µM): 101% | residual activity (RPS6KA5 KD1 KD2 (human); compound 0.1 µM): 80% | residual activity (RPS6KA5 KD1 KD2 (human); compound 1.0 µM): 82% | residual activity (LCK (mouse); compound 0.1 µM): 88% | residual activity (LCK (mouse); compound 1.0 µM): 92% | residual activity (EPHA2 (human); compound 0.1 µM): 96% | residual activity (EPHA2 (human); compound 1.0 µM): 102% | residual activity ([1]; compound 0.1 µM): 90% | residual activity ([1]; compound 1.0 µM): 101% | residual activity (IKBKE (human); compound 0.1 µM): 87% | residual activity (IKBKE (human); compound 1.0 µM): 90% | residual activity (MAPK13 (human); compound 0.1 µM): 88% | residual activity (MAPK13 (human); compound 1.0 µM): 88% | residual activity (NEK6 (human); compound 0.1 µM): 79% | residual activity (NEK6 (human); compound 1.0 µM): 89% | residual activity (MST4 (human); compound 0.1 µM): 96% | residual activity (MST4 (human); compound 1.0 µM): 97% | residual activity (PRKCZ (human); compound 0.1 µM): 95% | residual activity (PRKCZ (human); compound 1.0 µM): 88% | residual activity (MAPKAPK5 (human); compound 0.1 µM): 96% | residual activity (MAPKAPK5 (human); compound 1.0 µM): 86% | residual activity (PAK4 (human); compound 0.1 µM): 99% | residual activity (PAK4 (human); compound 1.0 µM): 100% | residual activity (MAPK11 (human); compound 0.1 µM): 107% | residual activity (MAPK11 (human); compound 1.0 µM): 104% | residual activity (HIPK2 (human); compound 0.1 µM): 103% | residual activity (HIPK2 (human); compound 1.0 µM): 112% | residual activity (DYRK3 (human); compound 0.1 µM): 96% | residual activity (DYRK3 (human); compound 1.0 µM): 98% | residual activity (BTK (human); compound 0.1 µM): 79% | residual activity (BTK (human); compound 1.0 µM): 78% | residual activity (CSNK2A1 (human); compound 0.1 µM): 115% | residual activity (CSNK2A1 (human); compound 1.0 µM): 106% | residual activity (MARK3 (human); compound 0.1 µM): 79% | residual activity (MARK3 (human); compound 1.0 µM): 79% | residual activity (MAPK14 (human); compound 0.1 µM): 88% | residual activity (MAPK14 (human); compound 1.0 µM): 89% | residual activity (DYRK1A (human); compound 0.1 µM): 92% | residual activity (DYRK1A (human); compound 1.0 µM): 96% | residual activity (DYRK2 (human); compound 0.1 µM): 81% | residual activity (DYRK2 (human); compound 1.0 µM): 87% | residual activity (CaMK1 (human); compound 0.1 µM): 90% | residual activity (CaMK1 (human); compound 1.0 µM): 101% | residual activity (PAK7 (human); compound 0.1 µM): 102% | residual activity (PAK7 (human); compound 1.0 µM): 114% | residual activity (EEF2K (human); compound 0.1 µM): 88% | residual activity (EEF2K (human); compound 1.0 µM): 92% | residual activity (EPHB3 (human); compound 0.1 µM): 92% | residual activity (EPHB3 (human); compound 1.0 µM): 97%

C/C(=C1/C(=O)Nc2ccc(NC(N)=O)cc21)c1ccc[nH]1
residual activity (ROCK2 (rat); compound 0.001 µM): 88% | residual activity (ROCK2 (rat); compound 0.01 µM): 90% | residual activity (ROCK2 (rat); compound 0.1 µM): 84% | residual activity (PAK6 (human); compound 0.001 µM): 97% | residual activity (PAK6 (human); compound 0.01 µM): 102% | residual activity (PAK6 (human); compound 0.1 µM): 88% | residual activity (RPS6KA5 KD1 KD2 (human); compound 0.001 µM): 83% | residual activity (RPS6KA5 KD1 KD2 (human); compound 0.01 µM): 87% | residual activity (RPS6KA5 KD1 KD2 (human); compound 0.1 µM): 80% | residual activity (LCK (mouse); compound 0.001 µM): 97% | residual activity (LCK (mouse); compound 0.01 µM): 95% | residual activity (LCK (mouse); compound 0.1 µM): 64% | residual activity (EPHA2 (human); compound 0.001 µM): 97% | residual activity (EPHA2 (human); compound 0.01 µM): 101% | residual activity (EPHA2 (human); compound 0.1 µM): 87% | residual activity ([1]; compound 0.001 µM): 85% | residual activity ([1]; compound 0.01 µM): 76% | residual activity (IKBKE (human); compound 0.001 µM): 85% | residual activity (IKBKE (human); compound 0.01 µM): 84% | residual activity (IKBKE (human); compound 0.1 µM): 69% | residual activity (MAPK13 (human); compound 0.001 µM): 96% | residual activity (MAPK13 (human); compound 0.01 µM): 89% | residual activity (MAPK13 (human); compound 0.1 µM): 86% | residual activity (NEK6 (human); compound 0.001 µM): 86% | residual activity (NEK6 (human); compound 0.01 µM): 84% | residual activity (NEK6 (human); compound 0.1 µM): 82% | residual activity (MST4 (human); compound 0.001 µM): 87% | residual activity (MST4 (human); compound 0.01 µM): 80% | residual activity (PRKCZ (human); compound 0.001 µM): 78% | residual activity (PRKCZ (human); compound 0.01 µM): 84% | residual activity (PRKCZ (human); compound 0.1 µM): 83% | residual activity (MAPKAPK5 (human); compound 0.001 µM): 100% | residual activity (MAPKAPK5 (human); compound 0.01 µM): 90% | residual activity (MAPKAPK5 (human); compound 0.1 µM): 94% | residual activity (PAK4 (human); compound 0.001 µM): 80% | residual activity (PAK4 (human); compound 0.01 µM): 85% | residual activity (PAK4 (human); compound 0.1 µM): 76% | residual activity (MAPK11 (human); compound 0.001 µM): 104% | residual activity (MAPK11 (human); compound 0.01 µM): 100% | residual activity (MAPK11 (human); compound 0.1 µM): 105% | residual activity (HIPK2 (human); compound 0.001 µM): 89% | residual activity (HIPK2 (human); compound 0.01 µM): 82% | residual activity (HIPK2 (human); compound 0.1 µM): 51% | residual activity (DYRK3 (human); compound 0.001 µM): 83% | residual activity (DYRK3 (human); compound 0.01 µM): 74% | residual activity (DYRK3 (human); compound 0.1 µM): 33% | residual activity (BTK (human); compound 0.001 µM): 95% | residual activity (BTK (human); compound 0.01 µM): 85% | residual activity (BTK (human); compound 0.1 µM): 93% | residual activity (CSNK2A1 (human); compound 0.001 µM): 92% | residual activity (CSNK2A1 (human); compound 0.01 µM): 91% | residual activity (CSNK2A1 (human); compound 0.1 µM): 86% | residual activity (MARK3 (human); compound 0.001 µM): 93% | residual activity (MARK3 (human); compound 0.01 µM): 61% | residual activity (MARK3 (human); compound 0.1 µM): 14% | residual activity (MAPK14 (human); compound 0.001 µM): 87% | residual activity (MAPK14 (human); compound 0.01 µM): 86% | residual activity (MAPK14 (human); compound 0.1 µM): 84% | residual activity (DYRK1A (human); compound 0.001 µM): 110% | residual activity (DYRK1A (human); compound 0.01 µM): 91% | residual activity (DYRK1A (human); compound 0.1 µM): 67% | residual activity (DYRK2 (human); compound 0.001 µM): 88% | residual activity (DYRK2 (human); compound 0.01 µM): 59% | residual activity (DYRK2 (human); compound 0.1 µM): 18% | residual activity (CaMK1 (human); compound 0.001 µM): 104% | residual activity (CaMK1 (human); compound 0.01 µM): 116% | residual activity (CaMK1 (human); compound 0.1 µM): 103% | residual activity (PAK7 (human); compound 0.001 µM): 84% | residual activity (PAK7 (human); compound 0.1 µM): 78% | residual activity (EEF2K (human); compound 0.01 µM): 101% | residual activity (EEF2K (human); compound 0.1 µM): 106% | residual activity (EPHB3 (human); compound 0.001 µM): 114% | residual activity (EPHB3 (human); compound 0.01 µM): 99% | residual activity (EPHB3 (human); compound 0.1 µM): 101%
